A short description of one series: in vivo. The following applies: both, minipig, plasma, iv; for half-life: 0.05 or 2 mg/kg short IV infusion.
In series [1] the test system is marginal ear vein of rabbits. Kind of series: Intravenous efficacy tests in rabbits (local vein findings). The class given is in vivo, rabbit. The following applies: multiple infusions, 1-20 mg/kg/day. The procedure: A series of efficacy studies with XMP.629 was conducted where slow IV push or short term (5 to 30 min) intravenous infusions were given through the marginal ear vein at 0.1 to 1.0 mg/mL to rabbits, some of whom were previously infected with Staphylococcus aureus, E. coli, or other bacteria, or Candida albicans. […] Due to the swelling, the veins could not be infused after two to five administrations of 1-20 mg/kg/day of XMP.629. […] Secondary changes in the surrounding tissue included edema, regional fibroplasia, acute hemorrhage, and regional hemorrhagic necrosis, as well as the presence of inflammation. These macroscopic changes were similar to the changes observed in the tail veins of rats and mice in other efficacy studies conducted.

In another series the test system is Streptococcus mutans. Kind of series: MIC, panel of human pathogens, standardized NCCLS protocols. The following applies: Streptococcus mutans 25175. The class given is cell-based.
In a further series the test system is P. acnes (ATCC 6919). Kind of series: Post-antibiotic effect (PAE) study. The series is classed as cell-based, Propionibacterium acnes. The procedure: Post-antibiotic effect (PAE) studies with XMP.629 were conducted according to the procedure described by Craig, W. and S. Gudmundsson, “Postantibiotic Effect,” p. 296, In: Lorian, V. (ed.) Antibiotics in Laboratory Medicine, 4th ed. The post antibiotic effect measures the duration that an antibiotic affects target organisms after contact with the bacteria. In this study, an initial concentration of 5×10^6 CFU/mL P. acnes (ATCC 6919) and 1 μg/mL were incubated for 15, 30, or 60 minutes and then diluted 100-fold in BHI. The treated organisms and matched untreated controls were incubated for […]. Samples were taken and counted at hourly intervals. Recovery was determined by plate counts over time.
The postantibiotic value is the difference in time between the controls and treated cultures to increase 1 log10. Because of the long generation time (slow growth) of the organism, the recovery time was unusually long, >12 hours. This may have influenced the results as typical assays are completed within 5-6 hours.

The conditions of series [2]: 72 hours following dosing.
A further series has as its system Clostridium difficile. Particulars: Clostridium difficile 9689.
Another series can be described thus: physchem. The following applies: aqueous solution.
Series [3] relates to Salmonella typhimurium TA98, TA100, TA1535, TA1537 and Escherichia coli WP2uvrA. As to the kind of experiment: Ames test: Salmonella-Escherichia coli/mammalian-microsome reverse mutation assay. The class given is cell-based. Particulars: with and without S9. The procedure: XMP.629 was evaluated in an initial mutagenicity assay. In this Salmonella-Escherchia coli/mammalian-microsome reverse mutation assay, XMP.629 was evaluated for the ability to induce reverse mutations at the histidine locus in four tester strains of Salmonella-typhimurium (TA98, TA100, TA1535 and TA1537) and at the tryptophan locus in Escherichia coli tester strain, WP2uvrA, in the presence or absence of an exogenous metabolic activation system ([…]). The experimental materials, methods and procedures were based on those described by Ames et al., 1975 (Mutat. Res. 31; 347-364) and Green and Muriel, 1976 (Mutat. Res. 38: 3-32). The assay design was based on the OECD Guideline 471, updated and adopted Jul. 21, 1997. Based on the results of an initial dose rangefinding study, XMP.629 was evaluated using (a) four standard Salmonella tester strains with the rat hepatic S9 (microsomal) fraction at doses of 1.00, 3.33, 10.0, 33.3, 66.7 and 100 μg/plate, and without S9 at doses of 1.00, 3.33, 10.0, 25.0, 33.3 and 66.7 μg/plate; and (b) tester strain WP2uvrA with S9 at doses of 3.33, 10.0, 33.3, 100, 250 and 333 μg/plate and without S9 at doses of 1.00, 3.33, 10.0, 33.3, 66.7 and 100 μg/plate. XMP.629 was re-evaluated in an independent confirmatory experiment under similar conditions at lower doses.
In addition, the test article was freely soluble at all doses evaluated with and without S9. […]
A general note: The Ames test detects mutagens through reverse mutation in bacteria.

SMILES strings stand for the structures. Non-standard residues stand in square brackets, D forms with d. Residues, ends and D or L forms follow the SMILES beside them. d1Nal = N[C@H](Cc1cccc2ccccc12)C(=O)O A value given as a limit tells only on which side of the number the result lay.

Experimental for physchem: In additional studies, a variety of formulations of XMP.629 were tested for stability under various temperatures, such as 25° C., 40° C., and 50° C., and at various time points, such as 0.5, 1, and 2 months.
The solubility of XMP.629 acetate in various solvents was also evaluated.
Solubility studies were conducted using a variety of solvent systems and/or skin penetration enhancers.

In the case of `CC(C)C[C@@H](NC(=O)[C@H](N)CCCCN)C(=O)N[C@H](Cc1ccccc1)C(=O)N[C@H](CCCNC(=N)N)C(=O)N[C@H](Cc1cccc2ccccc12)C(=O)N[C@H](CCC(N)=O)C(=O)N[C@H](C)C(=O)N[C@H](CCCCN)C(=O)N[C@H](Cc1cccc2ccccc12)C(N)=O` [XMP.629, NH2-lys-leu-phe-arg-(3-(1-naphthyl)-ala)-gln-ala-lys-(3-(1-naphthyl)-ala)-CONH2] (H-[dK][dL][dF][dR][d1Nal][dQ][dA][dK][d1Nal]-NH2), the Vd in the series “in vivo” (Sinclair mini-pig) is 0.067 to 0.102 L/kg; in the series “in vivo” (Sinclair mini-pig, 0.05 mg/kg) it was 1.79 L/kg; in “in vivo” (Sinclair mini-pig, 0.2 mg/kg), 0.956 L/kg. Also, the clearance in the series “in vivo” (Sinclair mini-pig) was 1.75 to 2.6 mL/min/kg; in the series “in vivo” (Sinclair, 0.05 mg/kg) it was 2.59 mL/min/kg; in “in vivo” (Sinclair, 0.2 mg/kg), 1.74 mL/min/kg. The half-life in the series “in vivo” (Sinclair mini-pig, beta half-life) was 1 to 1.3 h; in “in vivo” (Sinclair mini-pig, initial half-life), 0.03 to 0.9 h; in “in vivo” (Sinclair mini-pig, terminal half-life), ~15 h. In addition, the MRT in “in vivo” (Sinclair, 0.05 mg/kg) was found to be 11.3 h; in the series “in vivo” (Sinclair, 0.2 mg/kg), 7.41 h. For the same compound, in series [1], the “gross macroscopic changes at the infused vein” value was “swelling and hemorrhage into the perivascular space”. The “Minimum Inhibitory Concentrations” value in the series on Streptococcus mutans is “≦1 μg/mL”; with Clostridium difficile it was 2.00 µg/mL. In addition, the PAE value with P. acnes (ATCC 6919) (1 μg/mL, contact 30 or 60 minutes, accurate value could not be assigned) was ≥ 12 h. Moreover, in the series with P. acnes (ATCC 6919) (exposure to 0.5 to 2.0 MBCs for 15 minutes), the “recovery of affected cells” value was “did not recover, even after 24 hours of incubation”. Moreover, the “duration of continuing inhibitory, but not lethal, effect after contact” value in the series with P. acnes (ATCC 6919) (residence time greater than 15 minutes) is listed as “more than 5 hours”. Further, the “radioactivity remained in the body (carcass)” value in series [2] worked out at 79.7%. Further, in “physchem”, the solubility was ≥ 20 mg/mL. In addition, in series [3], the “reverse mutation assay result” value was “negative”.

Usually Vd stands for a proportionality between amount in the body and measured concentration, not a real space. The low end stands for confinement near the circulation, the high end for extensive tissue distribution. For orientation: clearance means a measure of how efficiently the substance is removed, as volume per time. Low values mean inefficient removal, high ones efficient removal. As usually defined, the half-life is the time needed for the level to fall by half in the phase considered. For orientation: MRT means the average time that molecules of a dose stay in the body. The solubility is the concentration that dissolves in the medium under given conditions. A high value points to much dissolved substance.

(Values after patent US20050148495A1, “Methods and materials including for treating acne” (priority 2003, published 2005).)
